Measurements published in article PMC10046369, “Low-Affinity/High-Selectivity Dopamine Transport Inhibition Sufficient to Rescue Cognitive Functions in the Aging Rat” (Biomolecules, 2023).

Experiments:
Test in all cases: biochemical
Design in all cases: KINOMEscan competition binding panel, per cent of control
Settings in all cases: read-out: %Ctrl @ 2800nM
[1] = molecular target: FLT4 (Homo sapiens, UniProt P35916)
Description: (§1) A panel of binding assays covering 450 human kinases and disease-relevant mutations was performed by DiscoverX (KINOMEscan®, Freemont, CA, USA) according to the standard and validated protocol defined by the contractor. […] Kinase binding assays This study was outsourced to DiscoverX (KINOMEscan®, Freemont, CA, USA) and is compliant with the corresponding project BUY004-01-p-00001. […] Results are reported as percent control (% Ctrl), where lower numbers indicate stronger hits in the matrix on the following page(s). %Ctrl calculation: ((test compound signal-positive control signal) / (negative control signal – positive control signal)) x 100.

[2] = molecular target: EPHB4 (Homo sapiens, UniProt P54760)
Sequence of EPHB4 (P54760 whole entry): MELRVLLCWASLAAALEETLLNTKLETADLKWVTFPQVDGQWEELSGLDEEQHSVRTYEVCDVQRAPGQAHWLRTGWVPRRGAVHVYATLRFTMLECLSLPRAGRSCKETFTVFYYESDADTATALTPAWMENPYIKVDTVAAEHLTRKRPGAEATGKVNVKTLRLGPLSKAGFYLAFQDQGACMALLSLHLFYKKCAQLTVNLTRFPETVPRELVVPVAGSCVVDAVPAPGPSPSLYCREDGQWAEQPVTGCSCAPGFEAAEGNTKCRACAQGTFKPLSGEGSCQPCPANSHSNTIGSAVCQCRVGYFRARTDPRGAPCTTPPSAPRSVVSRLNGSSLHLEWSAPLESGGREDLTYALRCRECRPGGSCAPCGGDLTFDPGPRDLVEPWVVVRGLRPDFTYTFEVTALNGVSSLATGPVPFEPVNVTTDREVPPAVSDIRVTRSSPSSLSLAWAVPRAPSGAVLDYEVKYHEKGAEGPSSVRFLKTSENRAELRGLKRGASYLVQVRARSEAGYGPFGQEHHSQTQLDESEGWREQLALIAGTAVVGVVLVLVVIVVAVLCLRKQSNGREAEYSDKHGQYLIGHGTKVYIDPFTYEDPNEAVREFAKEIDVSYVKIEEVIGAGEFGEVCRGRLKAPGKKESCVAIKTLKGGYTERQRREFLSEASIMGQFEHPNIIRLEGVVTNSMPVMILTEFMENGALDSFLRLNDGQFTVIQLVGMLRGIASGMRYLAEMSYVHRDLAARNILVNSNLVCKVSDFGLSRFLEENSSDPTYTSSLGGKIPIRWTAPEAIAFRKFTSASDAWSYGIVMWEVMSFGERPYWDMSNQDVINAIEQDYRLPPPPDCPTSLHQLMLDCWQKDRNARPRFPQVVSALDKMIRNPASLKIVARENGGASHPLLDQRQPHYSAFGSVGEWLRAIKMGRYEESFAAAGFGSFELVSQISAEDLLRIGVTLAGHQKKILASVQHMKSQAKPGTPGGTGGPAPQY
Description: as §1

[3] = molecular target: T1, OSR1 (Homo sapiens, UniProt O95747)
T1 construct: gene OXSR1
Description: as §1

[4] = molecular target: NEK7 (Homo sapiens, UniProt Q8TDX7)
Description: as §1

[5] = molecular target: EPHA5 (Homo sapiens, UniProt P54756)
Description: as §1

[6] = molecular target: T2, DCAMKL2 (Homo sapiens, UniProt Q8N568)
T2 construct: gene DCLK2
T2 sequence (Q8N568 whole entry): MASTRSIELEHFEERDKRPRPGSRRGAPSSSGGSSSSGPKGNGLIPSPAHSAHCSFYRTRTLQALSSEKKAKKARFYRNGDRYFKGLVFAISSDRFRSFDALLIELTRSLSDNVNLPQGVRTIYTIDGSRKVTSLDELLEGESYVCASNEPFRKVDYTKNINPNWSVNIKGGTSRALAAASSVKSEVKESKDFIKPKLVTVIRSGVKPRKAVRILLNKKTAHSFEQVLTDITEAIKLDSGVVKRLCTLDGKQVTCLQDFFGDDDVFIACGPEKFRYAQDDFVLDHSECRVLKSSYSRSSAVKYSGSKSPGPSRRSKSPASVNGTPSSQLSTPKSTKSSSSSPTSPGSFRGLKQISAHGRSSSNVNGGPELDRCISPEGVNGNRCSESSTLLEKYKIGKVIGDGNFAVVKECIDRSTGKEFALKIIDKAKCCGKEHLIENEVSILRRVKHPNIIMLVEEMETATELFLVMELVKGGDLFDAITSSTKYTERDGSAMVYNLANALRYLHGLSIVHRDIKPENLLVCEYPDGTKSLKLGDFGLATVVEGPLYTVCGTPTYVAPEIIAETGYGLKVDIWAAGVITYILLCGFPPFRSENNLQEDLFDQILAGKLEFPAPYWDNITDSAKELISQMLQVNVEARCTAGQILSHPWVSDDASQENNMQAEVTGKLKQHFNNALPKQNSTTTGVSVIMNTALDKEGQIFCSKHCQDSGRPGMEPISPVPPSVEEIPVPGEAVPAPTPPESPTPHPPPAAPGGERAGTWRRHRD
Description: as §1

[7] = molecular target: EIF2AK1 (Homo sapiens, UniProt Q9BQI3)
Description: as §1

[8] = molecular target: T3, MST2 (Homo sapiens, UniProt Q13188)
T3 construct: gene STK3
Description: as §1

[9] = molecular target: AKT3 (Homo sapiens, UniProt Q9Y243)
Sequence of AKT3 (Q9Y243 whole entry): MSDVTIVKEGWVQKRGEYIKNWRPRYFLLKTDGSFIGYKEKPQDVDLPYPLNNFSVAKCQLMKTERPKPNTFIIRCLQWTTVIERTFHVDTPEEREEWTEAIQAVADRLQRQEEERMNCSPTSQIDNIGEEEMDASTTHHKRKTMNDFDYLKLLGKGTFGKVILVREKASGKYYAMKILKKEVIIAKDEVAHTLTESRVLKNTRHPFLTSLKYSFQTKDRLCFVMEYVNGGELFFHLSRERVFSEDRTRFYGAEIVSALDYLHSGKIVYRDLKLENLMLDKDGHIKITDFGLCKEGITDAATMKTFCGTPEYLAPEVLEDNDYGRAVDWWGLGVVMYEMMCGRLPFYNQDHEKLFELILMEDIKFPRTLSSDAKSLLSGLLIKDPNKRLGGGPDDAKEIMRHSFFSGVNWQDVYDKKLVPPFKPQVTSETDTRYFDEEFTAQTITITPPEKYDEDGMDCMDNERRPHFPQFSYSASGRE
Description: as §1

[10] = molecular target: AKT1 (Homo sapiens, UniProt P31749)
Description: as §1

[11] = molecular target: TEC (Homo sapiens, UniProt P42680)
Sequence of TEC (P42680 whole entry): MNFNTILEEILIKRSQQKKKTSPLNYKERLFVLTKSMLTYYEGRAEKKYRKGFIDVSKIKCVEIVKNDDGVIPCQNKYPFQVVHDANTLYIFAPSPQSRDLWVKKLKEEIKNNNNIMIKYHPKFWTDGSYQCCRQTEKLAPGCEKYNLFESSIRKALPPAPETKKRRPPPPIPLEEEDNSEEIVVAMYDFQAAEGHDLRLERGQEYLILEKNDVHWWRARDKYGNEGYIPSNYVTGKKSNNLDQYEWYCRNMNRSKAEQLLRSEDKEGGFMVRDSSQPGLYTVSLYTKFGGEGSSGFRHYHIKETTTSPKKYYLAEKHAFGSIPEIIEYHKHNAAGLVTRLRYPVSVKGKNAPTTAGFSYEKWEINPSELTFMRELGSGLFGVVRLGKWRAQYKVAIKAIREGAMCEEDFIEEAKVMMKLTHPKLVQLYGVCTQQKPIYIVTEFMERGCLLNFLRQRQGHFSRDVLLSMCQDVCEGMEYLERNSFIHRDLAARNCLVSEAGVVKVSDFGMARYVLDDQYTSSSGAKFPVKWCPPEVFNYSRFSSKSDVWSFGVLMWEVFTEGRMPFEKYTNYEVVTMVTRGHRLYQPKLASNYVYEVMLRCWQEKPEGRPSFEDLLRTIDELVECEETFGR
Description: as §1

[12] = molecular target: PIK3CA(E545A) (Homo sapiens, UniProt P42336, E545A)
Description: as §1

[13] = molecular target: FGFR4 (Homo sapiens, UniProt P22455)
Description: as §1

[14] = molecular target: MAP4K3 (Homo sapiens, UniProt Q8IVH8)
Sequence of MAP4K3 (Q8IVH8 whole entry): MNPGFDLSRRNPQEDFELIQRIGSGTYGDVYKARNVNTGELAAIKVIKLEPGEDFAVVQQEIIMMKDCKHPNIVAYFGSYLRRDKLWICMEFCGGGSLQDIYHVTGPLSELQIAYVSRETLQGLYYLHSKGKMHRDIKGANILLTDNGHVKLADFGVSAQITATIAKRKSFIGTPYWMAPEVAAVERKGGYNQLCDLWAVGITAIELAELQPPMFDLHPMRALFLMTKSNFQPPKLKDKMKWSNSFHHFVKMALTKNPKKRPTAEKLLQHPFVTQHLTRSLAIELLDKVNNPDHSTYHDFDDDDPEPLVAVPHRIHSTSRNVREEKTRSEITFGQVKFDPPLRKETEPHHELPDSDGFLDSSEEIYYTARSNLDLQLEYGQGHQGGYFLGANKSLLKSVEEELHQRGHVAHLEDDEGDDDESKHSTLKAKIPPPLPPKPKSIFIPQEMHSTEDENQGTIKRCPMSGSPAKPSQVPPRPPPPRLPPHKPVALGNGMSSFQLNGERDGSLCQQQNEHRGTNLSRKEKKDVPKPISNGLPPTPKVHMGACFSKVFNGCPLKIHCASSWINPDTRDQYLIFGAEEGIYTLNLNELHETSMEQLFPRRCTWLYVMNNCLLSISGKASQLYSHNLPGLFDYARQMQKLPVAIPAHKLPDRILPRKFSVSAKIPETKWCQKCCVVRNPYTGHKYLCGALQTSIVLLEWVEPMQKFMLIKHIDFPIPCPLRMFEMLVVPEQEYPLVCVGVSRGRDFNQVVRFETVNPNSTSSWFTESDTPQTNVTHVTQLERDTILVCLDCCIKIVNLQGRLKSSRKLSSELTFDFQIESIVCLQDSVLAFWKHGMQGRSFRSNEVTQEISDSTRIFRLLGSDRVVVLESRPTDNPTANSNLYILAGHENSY
Description: as §1

[15] = molecular target: FGFR3 (Homo sapiens, UniProt P22607)
Description: as §1

[16] = molecular target: ROCK2 (Homo sapiens, UniProt O75116)
Description: as §1

[17] = molecular target: CDK2 (Homo sapiens, UniProt P24941)
Description: as §1

[18] = molecular target: FLT3(ITD,D835V) (Homo sapiens, UniProt P36888, D835V/ITD)
Description: as §1

[19] = molecular target: TNNI3K (Homo sapiens, UniProt Q59H18)
Description: as §1

[20] = molecular target: T4, DRAK1 (Homo sapiens, UniProt Q9UEE5)
T4 construct: gene STK17A
T4 sequence (Q9UEE5 whole entry): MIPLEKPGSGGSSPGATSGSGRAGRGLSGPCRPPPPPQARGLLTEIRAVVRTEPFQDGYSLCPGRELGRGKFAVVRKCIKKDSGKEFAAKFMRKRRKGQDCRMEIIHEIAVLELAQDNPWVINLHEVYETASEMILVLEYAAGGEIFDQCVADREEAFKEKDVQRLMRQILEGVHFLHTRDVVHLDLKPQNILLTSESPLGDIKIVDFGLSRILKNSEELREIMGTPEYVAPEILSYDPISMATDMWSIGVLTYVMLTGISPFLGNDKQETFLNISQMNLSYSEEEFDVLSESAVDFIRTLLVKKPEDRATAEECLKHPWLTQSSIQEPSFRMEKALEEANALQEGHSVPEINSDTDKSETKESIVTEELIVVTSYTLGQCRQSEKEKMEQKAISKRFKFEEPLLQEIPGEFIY
Description: as §1

[21] = molecular target: FYN (Homo sapiens, UniProt P06241)
Sequence of FYN (P06241 whole entry): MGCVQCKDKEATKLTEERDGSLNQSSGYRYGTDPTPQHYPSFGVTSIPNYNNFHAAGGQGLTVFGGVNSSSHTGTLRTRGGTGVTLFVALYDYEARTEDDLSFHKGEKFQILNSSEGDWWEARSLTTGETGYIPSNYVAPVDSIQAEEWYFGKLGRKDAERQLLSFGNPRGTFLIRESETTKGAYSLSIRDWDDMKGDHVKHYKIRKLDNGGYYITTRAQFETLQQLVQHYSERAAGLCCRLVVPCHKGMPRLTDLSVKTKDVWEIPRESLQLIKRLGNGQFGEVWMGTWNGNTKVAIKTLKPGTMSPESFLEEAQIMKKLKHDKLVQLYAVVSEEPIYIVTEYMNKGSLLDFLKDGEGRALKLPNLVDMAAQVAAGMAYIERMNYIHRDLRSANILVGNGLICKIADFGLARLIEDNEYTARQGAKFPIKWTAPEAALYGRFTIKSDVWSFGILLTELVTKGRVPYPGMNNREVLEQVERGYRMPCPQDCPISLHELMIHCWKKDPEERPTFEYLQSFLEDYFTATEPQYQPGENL
Description: as §1

[22] = molecular target: MARK1 (Homo sapiens, UniProt Q9P0L2)
Description: as §1

[23] = molecular target: CSNK1A1 (Homo sapiens, UniProt P48729)
Sequence of CSNK1A1 (P48729 whole entry): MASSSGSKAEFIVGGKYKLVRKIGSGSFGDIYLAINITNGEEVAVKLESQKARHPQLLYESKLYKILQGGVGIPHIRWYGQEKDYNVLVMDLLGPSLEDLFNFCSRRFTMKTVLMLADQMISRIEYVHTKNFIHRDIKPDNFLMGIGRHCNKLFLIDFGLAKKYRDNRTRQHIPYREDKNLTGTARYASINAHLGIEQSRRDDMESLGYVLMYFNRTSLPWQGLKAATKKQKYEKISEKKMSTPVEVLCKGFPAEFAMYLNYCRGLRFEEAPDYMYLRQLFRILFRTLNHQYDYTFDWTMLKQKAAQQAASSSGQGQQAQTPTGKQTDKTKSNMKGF
Description: as §1

[24] = molecular target: PIM3 (Homo sapiens, UniProt Q86V86)
Description: as §1

[25] = molecular target: T5, PFTK1 (Homo sapiens, UniProt O94921)
T5 construct: gene CDK14
Description: as §1

[26] = molecular target: MARK4 (Homo sapiens, UniProt Q96L34)
Description: as §1

[27] = molecular target: MKNK1 (Homo sapiens, UniProt Q9BUB5)
Description: as §1

Compound: [O-][S@@+](Cc1cncs1)C(c1ccccc1)c1ccccc1 [S-CE-123, (S)-5-((Benzhydrylsulfinyl)Methyl)Thiazole]
- remaining binding at 2.8 µM [1]: 100%
- remaining binding at 2.8 µM [2]: 95%
- remaining binding at 2.8 µM [3]: 90%
- remaining binding at 2.8 µM [4]: 100%
- remaining binding at 2.8 µM [5]: 86%
- remaining binding at 2.8 µM [6]: 97%
- remaining binding at 2.8 µM [7]: 100%
- remaining binding at 2.8 µM [8]: 80%
- remaining binding at 2.8 µM [9]: 99%
- remaining binding at 2.8 µM [10]: 99%
- remaining binding at 2.8 µM [11]: 100%
- remaining binding at 2.8 µM [12]: 93%
- remaining binding at 2.8 µM [13]: 100%
- remaining binding at 2.8 µM [14]: 100%
- remaining binding at 2.8 µM [15]: 91%
- remaining binding at 2.8 µM [16]: 100%
- remaining binding at 2.8 µM [17]: 94%
- remaining binding at 2.8 µM [18]: 100%
- remaining binding at 2.8 µM [19]: 100%
- remaining binding at 2.8 µM [20]: 95%
- remaining binding at 2.8 µM [21]: 93%
- remaining binding at 2.8 µM [22]: 93%
- remaining binding at 2.8 µM [23]: 74%
- remaining binding at 2.8 µM [24]: 100%
- remaining binding at 2.8 µM [25]: 92%
- remaining binding at 2.8 µM [26]: 98%
- remaining binding at 2.8 µM [27]: 96%
